The target of one assay is T1, Peregrin (Homo sapiens) (UniProt P55201).
T1 sequence (whole entry): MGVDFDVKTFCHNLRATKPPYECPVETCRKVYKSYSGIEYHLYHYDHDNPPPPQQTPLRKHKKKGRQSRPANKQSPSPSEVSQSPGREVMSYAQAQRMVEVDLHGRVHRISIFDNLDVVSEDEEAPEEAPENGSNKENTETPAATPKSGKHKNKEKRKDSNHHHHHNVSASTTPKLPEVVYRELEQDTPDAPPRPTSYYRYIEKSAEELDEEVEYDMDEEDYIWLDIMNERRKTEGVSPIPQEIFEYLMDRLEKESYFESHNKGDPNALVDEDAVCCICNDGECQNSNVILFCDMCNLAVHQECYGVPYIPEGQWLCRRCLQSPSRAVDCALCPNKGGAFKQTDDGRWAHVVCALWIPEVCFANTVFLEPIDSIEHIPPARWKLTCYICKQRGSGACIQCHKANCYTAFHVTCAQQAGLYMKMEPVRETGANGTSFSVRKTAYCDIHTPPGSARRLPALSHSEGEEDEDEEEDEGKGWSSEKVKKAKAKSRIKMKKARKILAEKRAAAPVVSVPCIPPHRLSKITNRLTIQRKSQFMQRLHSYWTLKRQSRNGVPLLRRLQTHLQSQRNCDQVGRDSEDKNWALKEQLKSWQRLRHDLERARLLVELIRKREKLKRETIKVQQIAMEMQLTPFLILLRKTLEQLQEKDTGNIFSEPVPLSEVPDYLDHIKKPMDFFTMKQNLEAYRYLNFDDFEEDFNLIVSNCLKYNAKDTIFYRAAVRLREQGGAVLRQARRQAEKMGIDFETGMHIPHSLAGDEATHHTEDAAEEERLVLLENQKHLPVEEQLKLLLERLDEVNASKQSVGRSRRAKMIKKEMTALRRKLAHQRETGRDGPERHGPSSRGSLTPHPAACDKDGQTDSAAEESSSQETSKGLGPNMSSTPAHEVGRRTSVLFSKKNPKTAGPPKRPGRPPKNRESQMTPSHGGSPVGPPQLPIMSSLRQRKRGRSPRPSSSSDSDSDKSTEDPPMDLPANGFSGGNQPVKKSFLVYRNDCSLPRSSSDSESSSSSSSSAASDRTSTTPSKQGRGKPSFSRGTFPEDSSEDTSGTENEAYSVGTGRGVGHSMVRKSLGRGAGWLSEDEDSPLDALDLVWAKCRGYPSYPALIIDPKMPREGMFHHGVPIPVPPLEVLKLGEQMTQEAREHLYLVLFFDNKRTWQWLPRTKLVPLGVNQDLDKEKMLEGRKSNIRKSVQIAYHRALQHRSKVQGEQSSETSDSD
To be noted: Compound concentration 20.0 uM.

Assay [1] concerns the target Fibroblast growth factor receptor 2 (Homo sapiens) (UniProt P21802). To be noted: Compound concentration 20.0 uM.
Description: Thermal Shift Assay. Domain: start/stop: T457-E768

Residues, ends and D or L forms follow the SMILES beside them. *: point of attachment. Cbz = O=C(OCc1ccccc1)*; CH2F = FC*

Experimental findings from ChEMBL document CHEMBL5724796, “Tm Shift (DSF) assay results for EUbOPEN Chemogenomics Library” (2024) are described below.

Fibroblast growth factor receptor 2 (Homo sapiens), sequence (P21802 22-821 limits assumed): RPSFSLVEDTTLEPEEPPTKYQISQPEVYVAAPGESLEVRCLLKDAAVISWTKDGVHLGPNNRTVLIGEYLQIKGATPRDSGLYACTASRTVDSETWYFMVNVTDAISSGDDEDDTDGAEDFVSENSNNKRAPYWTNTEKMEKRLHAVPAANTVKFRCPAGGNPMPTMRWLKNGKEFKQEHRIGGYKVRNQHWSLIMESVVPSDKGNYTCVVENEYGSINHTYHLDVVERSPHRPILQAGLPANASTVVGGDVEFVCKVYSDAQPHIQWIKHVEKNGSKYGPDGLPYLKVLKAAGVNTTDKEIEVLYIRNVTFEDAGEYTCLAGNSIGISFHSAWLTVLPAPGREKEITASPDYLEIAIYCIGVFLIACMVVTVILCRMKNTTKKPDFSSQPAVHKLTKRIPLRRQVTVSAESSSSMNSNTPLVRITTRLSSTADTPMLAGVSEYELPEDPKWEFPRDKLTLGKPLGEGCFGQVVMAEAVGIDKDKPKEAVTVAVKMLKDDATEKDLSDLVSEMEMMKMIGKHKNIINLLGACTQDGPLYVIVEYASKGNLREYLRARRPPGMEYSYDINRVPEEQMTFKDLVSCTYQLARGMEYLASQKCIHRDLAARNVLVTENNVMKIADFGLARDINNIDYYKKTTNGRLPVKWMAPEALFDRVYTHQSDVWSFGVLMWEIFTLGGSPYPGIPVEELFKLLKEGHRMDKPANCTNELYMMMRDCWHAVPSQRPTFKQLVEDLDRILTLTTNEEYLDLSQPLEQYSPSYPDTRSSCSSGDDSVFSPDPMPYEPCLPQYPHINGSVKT

As to `CCN(c1cc(-c2ccc(CN3CCOCC3)cc2)cc(C(=O)NCc2c(C)cc(C)[nH]c2=O)c1C)C1CCOCC1`, the ΔTm at Peregrin (Homo sapiens) was -1.14 °C; in assay [1], 0.66 °C.

As to `COC(=O)CC(NC(=O)C(C)NC(=O)C(NC(=O)C(CC(=O)OC)NC(=O)C(NC(=O)OCc1ccccc1)C(C)C)C(C)C)C(=O)CF` (centres undefined) (Cbz-VD(OMe)VAD(OMe)-CH2F; configuration not given here), the results for the ΔTm (at Peregrin (Homo sapiens); in assay [1]) were 2.28 °C and -0.48 °C, respectively.

`C[C@@H](Oc1ccc(CNC(=O)c2cccnc2Oc2ccc3c(c2)OCO3)c(F)c1)C(=O)O`: the ΔTm amounted to 3.08 °C on Peregrin (Homo sapiens) and 0.14 °C in assay [1].

Take `CCCC[C@]1(CC)CS(=O)(=O)c2cc(CNC(CC(=O)O)CC(=O)O)c(OC)cc2[C@@H](c2ccccc2)N1`: the results for the ΔTm (on Peregrin (Homo sapiens); in assay [1]) were 1.87 °C and 0.6 °C, respectively.

In the case of `N#Cc1cc2cc(CN3CCC(Nc4ncnc5sc(CC(F)(F)F)cc45)CC3)ccc2[nH]1`, the ΔTm on Peregrin (Homo sapiens) is 1.21 °C; in assay [1], 0.16 °C.

Take `CC(C)c1ccc(C(=O)N=C(N)N)cc1S(C)(=O)=O`: the ΔTm was -0.14 °C at Peregrin (Homo sapiens) and -0.34 °C in assay [1].

For `O=C(O)CCNc1cc(N2CCc3ccccc3CC2)nc(-c2cccnc2)n1`, the shift in melting temperature (ΔTm) on Peregrin (Homo sapiens) was -1.01 °C; in assay [1], 0.9 °C.

For the compound `CC(C)(C)C1CCN(C(=O)n2ncc(C(O)(c3ccccc3)c3ccccc3)n2)CC1`, the ΔTm on Peregrin (Homo sapiens) is -4.31 °C; in assay [1] it was -3.22 °C.

In the case of `O=C(NO)c1cccc(C(=O)NCCc2ccccc2)c1`, the shift in melting temperature (ΔTm) on Peregrin (Homo sapiens) is -0.84 °C; in assay [1], 0.41 °C.

As to `Cc1noc(C)c1-c1cc(Cl)c(Nc2ccccc2C(=O)O)c(Cl)c1`, the ΔTm at Peregrin (Homo sapiens) was -0.15 °C; in assay [1], 0.17 °C.

With `CC(C)(O)c1ccc(N2Cc3c(ccnc3-c3ccc(F)cc3OCC(F)(F)F)C2=O)cc1`, the figures for the thermal shift (ΔTm) (at Peregrin (Homo sapiens); in assay [1]) were -1.27 °C and -4.87 °C, respectively.

As for `O=[N+]([O-])c1ccc(CSc2ncnc3c2ncn3[C@@H]2O[C@H](CO)[C@@H](O)[C@H]2O)cc1`, the values for the thermal shift (ΔTm) (on Peregrin (Homo sapiens); in assay [1]) were 1.12 °C and 0.22 °C, respectively.

`C[C@H]1CCCN1Cc1nc2cc(NC(=O)c3ccc4c(cnn4C)c3)ccc2[nH]1`: the values for the ΔTm (at Peregrin (Homo sapiens); in assay [1]) were -1.47 °C and 0.51 °C, respectively.

Take `CCNC(=O)c1noc(-c2cc(C(C)C)c(O)cc2O)c1-c1ccc(CN2CCOCC2)cc1`: the ΔTm at Peregrin (Homo sapiens) was -1.1 °C; in assay [1] it was 0.62 °C.

`Cc1ncc(Cl)cc1NCc1ccc(C(=O)N[C@@H](CC2CCCC2)C(=O)NC2CC2)s1`: the ΔTm is -0.65 °C at Peregrin (Homo sapiens) and 1.09 °C in assay [1].

Regarding `CC(C)NCC(O)COC(Cn1c2ccccc2c2ccccc21)Cn1c2ccccc2c2ccccc21` (centres undefined), the thermal shift (ΔTm) is -1.15 °C on Peregrin (Homo sapiens) and 0.48 °C in assay [1].

With `CC(=Cc1cc(C)ccc1C=C(C)C(=O)NC(=N)N)C(=O)N=C(N)N`, the ΔTm on Peregrin (Homo sapiens) is -1.11 °C; in assay [1], -0.04 °C.

As for `CNCc1ccc(-c2cc3cc(F)cc(C(N)=O)c3o2)cc1`, the ΔTm was determined as 1.32 °C at Peregrin (Homo sapiens) and 0.56 °C in assay [1].

On to `Cc1cc(Cn2c(=O)n(Cc3cnc(C)s3)c(=O)c3cc(S(=O)(=O)NC4(C)CC4)ccc32)n(C)n1`, for which the figures for the shift in melting temperature (ΔTm) (at Peregrin (Homo sapiens); in assay [1]) were -1.12 °C and 0.47 °C, respectively.

For `COc1ccc(CC[C@H]2CCC[C@@H](CCc3ccc(OC)cc3)N2C[C@@H](O)CO)cc1`, the ΔTm on Peregrin (Homo sapiens) was 0.69 °C; in assay [1] it was -0.53 °C.

With `N#Cc1ccc(-c2c3n(c4cccnc24)CCN(C2CC2)C3=O)cc1F`, the thermal shift (ΔTm) on Peregrin (Homo sapiens) is -0.31 °C; in assay [1] it was -0.59 °C.

In the case of `Nc1nc2cc(CC[C@H]3C[C@@H](n4ccc5c(N)ncnc54)[C@H](O)[C@@H]3O)ccc2cc1Br`, the ΔTm at Peregrin (Homo sapiens) is -0.14 °C; in assay [1], -5.18 °C.

On to `O=C(NCC(=O)N1CCCCC1)Nc1ccc2nnsc2c1`, for which the ΔTm was -1.05 °C at Peregrin (Homo sapiens) and 0.59 °C in assay [1].

Regarding `CS(=O)(=O)N1CCN(C(=O)c2cnc3ccc(F)cc3c2-c2ccc(C3(C#N)CC3)cc2)CC1`, the ΔTm amounted to 0.38 °C on Peregrin (Homo sapiens) and 0.1 °C in assay [1].

Consider `O=C(NCC1(c2nc(-c3ccccc3)cs2)CCOCC1)c1cccc(-c2noc(C(F)(F)F)n2)c1`, for which the shift in melting temperature (ΔTm) at Peregrin (Homo sapiens) was -4.49 °C; in assay [1] it was -0.34 °C.

With `N#Cc1ccc(Nc2cnccc2SCc2ccccc2C(=O)O)c2ccccc12`, the ΔTm was 1.8 °C at Peregrin (Homo sapiens) and 0.49 °C in assay [1].

`N[C@@H](CCCCNC(=O)OCc1ccc([N+](=O)[O-])cc1)C(=O)N1CCCC1`: the figures for the thermal shift (ΔTm) (on Peregrin (Homo sapiens); in assay [1]) were 0.82 °C and -0.09 °C, respectively.

Take `CNC(=O)N1CCc2c(c(N3CCCc4cc(-c5cnn(C)c5)c(C(F)F)cc43)nn2C2CCOCC2)C1`: the results for the thermal shift (ΔTm) (at Peregrin (Homo sapiens); in assay [1]) were -0.21 °C and -0.44 °C, respectively.

For `C[C@@H]1O[C@@H](CC(=O)O)CC2=C1C(=O)c1c(O)cccc1C2=O`, the shift in melting temperature (ΔTm) on Peregrin (Homo sapiens) was 0.11 °C; in assay [1] it was -0.89 °C.

In the case of `N#Cc1ccc([C@H]2CCCC[C@H]2O)cc1C(F)(F)F`, the ΔTm at Peregrin (Homo sapiens) was -0.66 °C; in assay [1], -0.09 °C.

Take `Cc1ncccc1-c1cnc(NCc2c(F)ccc3c2CCO3)n2cnnc12`: the ΔTm at Peregrin (Homo sapiens) is -0.54 °C; in assay [1], -0.09 °C.

For `C[C@H](c1nc2c(cnn2C2CCOCC2)c(=O)[nH]1)N1CC(Oc2ccccc2)C1`, the ΔTm was 2.25 °C on Peregrin (Homo sapiens) and -0.05 °C in assay [1].

As to `CC(C)(OCc1cc(-c2cccc(OC3CC3)c2)n(-c2ccccc2Cl)n1)C(=O)O`, the ΔTm is 0.83 °C at Peregrin (Homo sapiens) and -0.52 °C in assay [1].

In the case of `Cc1nc(F)ccc1-c1cc(Cn2ccn(C)c2=N)cc(C(=O)NCc2ccc(Cl)c(Cl)c2)c1`, the ΔTm on Peregrin (Homo sapiens) is -1.3 °C; in assay [1] it was 0.16 °C.

On to `N[C@@H](CCCCB(O)O)C(=O)O`, for which the ΔTm on Peregrin (Homo sapiens) is 0.2 °C; in assay [1], 0.29 °C.

As for `CN(CCCN1c2ccccc2CCc2ccccc21)CC(=O)c1ccc(Cl)cc1`, the figures for the shift in melting temperature (ΔTm) (on Peregrin (Homo sapiens); in assay [1]) were -0.12 °C and 0.53 °C, respectively.

Regarding `O=C(c1cc(O)c(O)c([N+](=O)[O-])c1)c1ccccc1F`, the results for the shift in melting temperature (ΔTm) (on Peregrin (Homo sapiens); in assay [1]) were 1.4 °C and -0.06 °C, respectively.

As for `O=C(c1cc(Cc2n[nH]c(=O)c3ccccc23)ccc1F)N1CCn2nc(C(F)(F)F)nc2C1`, the ΔTm at Peregrin (Homo sapiens) was 0.87 °C; in assay [1] it was -0.57 °C.

As for `CN(CCOc1ccc(-c2ccc3c(c2)OCO3)cc1C(C)(C)C)CC(=O)O`, the ΔTm at Peregrin (Homo sapiens) is 2.31 °C; in assay [1] it was -0.25 °C.

Regarding `COc1ccc(N2CCN(C(=O)c3cc4c(s3)-c3ccccc3S(=O)(=O)C4)CC2)cc1`, the ΔTm at Peregrin (Homo sapiens) turned out to be 0 °C; in assay [1] it was 0.24 °C.

For the compound `Nc1c[nH]c(=O)c2cc(-c3ccccc3)sc12`, the figures for the shift in melting temperature (ΔTm) (on Peregrin (Homo sapiens); in assay [1]) were -1.11 °C and 0.44 °C, respectively.

Regarding `O=C(N1CCCC[C@@H]1Cc1ccccc1)n1cc(-c2ccc(-c3ccccc3)cc2)nn1`, the ΔTm on Peregrin (Homo sapiens) came to 0.6 °C; in assay [1], 0 °C.

Take `COc1ccc2nc3[nH]nc(C)c3c(NCCOCCO)c2c1`: the thermal shift (ΔTm) on Peregrin (Homo sapiens) is -1.14 °C; in assay [1], 0.8 °C.

With `Nc1ncnc2c1c(I)cn2[C@@H]1O[C@H](CO)[C@@H](O)[C@H]1O`, the results for the ΔTm (on Peregrin (Homo sapiens); in assay [1]) were 2.98 °C and 2.17 °C, respectively.

`CC(C)[C@H](NC(=O)OCc1ccccc1)C(=O)NC(CC(=O)O)C(=O)CF` (some centres undefined): the results for the ΔTm (on Peregrin (Homo sapiens); in assay [1]) were -1.71 °C and 0.74 °C, respectively.

As to `CN(Cc1cccc(-c2ccncc2)c1)C(=O)Oc1ccc(-c2ccc(C(N)=O)cc2)cc1`, the thermal shift (ΔTm) is 2.09 °C on Peregrin (Homo sapiens) and 0.69 °C in assay [1].

`Cc1[nH]c2c(N3CCCCC3)c(-c3ccccc3)nn2c(=O)c1-c1ccc(O)cc1`: the ΔTm on Peregrin (Homo sapiens) is -0.91 °C; in assay [1] it was 0.5 °C.
